Reference: patent US9505798B2, “Steroid compounds as RORyt modulators and uses thereof” (New York University, priority 2010, dated 2016)
Read-outs that look alike come from different tables or passages of the source.

How the values were obtained:
[1] = biological target: T1, mouse RORγt (Mus musculus, UniProt P51450); assay: Drosophila S2 cell RORγt luciferase reporter; type: cell-based
T1 construct: mouse RORγt (amino acids 79 to the carboxyl terminal end); expressed in transfected cells
T1 sequence (P51450 79-495 isoform P51450-2): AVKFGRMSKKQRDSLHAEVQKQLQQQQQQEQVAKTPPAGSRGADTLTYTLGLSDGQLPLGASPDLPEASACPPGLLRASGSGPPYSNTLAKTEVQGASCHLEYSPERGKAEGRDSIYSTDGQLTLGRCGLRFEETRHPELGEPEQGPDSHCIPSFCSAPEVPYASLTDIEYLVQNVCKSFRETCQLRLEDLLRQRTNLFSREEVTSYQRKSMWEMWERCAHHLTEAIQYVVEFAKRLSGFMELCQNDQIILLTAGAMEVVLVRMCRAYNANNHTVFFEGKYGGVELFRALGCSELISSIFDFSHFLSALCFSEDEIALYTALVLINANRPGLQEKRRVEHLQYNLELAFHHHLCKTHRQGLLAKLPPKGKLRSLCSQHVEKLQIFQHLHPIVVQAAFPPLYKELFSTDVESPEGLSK
From the text: The Drosophila S2 cell line was originally purchased from Invitrogen and was maintained in Schneider's medium supplemented with 10% heat-inactivated bovine fetal calf serum and antibiotics (Invitrogen). […] The resulting chimeric gene was subcloned into the copper inducible pMT/V5-His A vector (Invitrogen). […] Coding sequences for firefly luciferase (Promega) were PCR amplified and subcloned into pUAST vector containing Gal4 binding enhancer sequences. Renilla luciferase construct under the polIII promoter was obtained from Dr. Dasgupta's laboratory (NYU medical center). In order to generate stable cell lines, cells were co-transfected with pMT-G4 DBD-RORγt, pMT-G4 DBD-RORα, pMT-G4 DBD-DHR3, or pMT-G4 DBDVP16 and pHygro plasmids (Invitrogen) and screened for resistant colonies in the presence of hygromycin (0.3 mg/mL). […] Using similar methods, stable clones with genomic integration of the luciferase reporters and other reporters were generated such as pMT-RORα_luc, pMT-DHR3_Luc, or pMT-VP16_luc.
The following representative compounds are tested for their RORγt inhibitory activity and toxicity.
Promega Dual-Glo system is widely used for HTS as the luciferase substrates. Cell culture medium was reduced to the final volume of 10 μl or less and 10 μl of Dual-glo and 10 μl of Stop-glo luciferase substrates were added in a sequencial manner (Promega). Firefly and Renilla luciferase activity was determined by measuring luminescence signals using an automated 384-well plate reader equipped with multiple stack units (such as the Analyst GT or Envision plate readers).
10,000 Drosophila stable S2 cells with genomic integration of the Cu2+-inducible G4 DBD-mouse RORγ construct were transfected with 5 ng of pUASTfirefly luciferase and 7 ng of Pol III-Renilla luciferase and dispensed into white bottom-tissue culture 384-well plates (Corning). […] The following morning, Stop-glo luciferase substrates (Promega) were used to measure luciferase activity.
The Drosophila S2 cell line was originally purchased from Invitrogen and was maintained in Schneider's Drosophila medium supplemented with 10% heat-inactivated bovine fetal calf serum and 1× antibiotic-antimycotic solution (Invitrogen). […] The resulting chimeric gene was subcloned into the copper inducible pMT/V5-His A vector (Invitrogen) and into the constitutive pAc vector. […] Coding sequences for firefly luciferase (Promega) were PCR amplified and subcloned into the pUAST vector containing five Gal4 binding enhancer sequences. The Renilla luciferase construct under a pol III promoter and the pAc vector were obtained from R. Dasgupta (NYU School of Medicine). To generate cell lines stably expressing various chimeric proteins upon copper addition, S2 cells were co-transfected with pMT plasmids encoding individual G4 DBD chimeric constructs and the pCoHygro plasmid (Invitrogen), before screening for resistant colonies in the presence of hygromycin (0.3 mg/mL). […] The human androgen receptor (hAR) expression plasmid pMK33-hAR and its reporter TAT3-Luc were obtained from M. Garabedian (NYU School of Medicine). […] R1881 (10 nM) and Dafachronic acid (10 μM) were used as ligands for hAR and Daf12. Upon treatment of cells with copper, in 384 well plates, there was specific increase in firefly luciferase activity versus normalized Renilla luciferase activity for all cell lines described above, validating the method for high-throughput screen.
Transfections of firefly and Renilla reporter constructs were performed using the Effectene kit from Qiagen according to the manufacturer's protocol with some modifications.

[2] = biological target: T2, human RORγ LBD (Homo sapiens, UniProt P51449); assay: In vitro binding and competition assay (fluorescence polarization, fluorescein-labeled 25-hydroxycholesterol)
T2 construct: Human RORγ LBD (residues 262-518); 6×His-tag (N); thrombin cleavage site (N); made in house; host or cells: E. coli BL21-CodonPlus(DE3)-RIL, pET46 Ek/Lic vector
Experimental: All DNA constructs were generated by PCR-based methodology and confirmed by sequencing. […] IL-17a, IFN-γ, IL-4, and CCR6 protein expression was examined by intracellular or surface staining according to the manufacturer's protocol.
The cells were induced with 0.5 mM IPTG at 16° C. overnight, then collected and lysed in 20 mM Tris-HCl (pH 8.0), 500 mM NaCl, 20 mM imidazole and 10% glycerol. Supernatant was loaded onto a HisTrap™ FF crude 5 mL column on an AKTAxpress HPLC system. The protein was eluted with a 20-500 mM imidazole gradient, dialyzed overnight against 20 mM Tris-HCl (pH 8.0) and 200 mM NaCl, and further purified on a Q Sepharose™ Fast Flow anion exchange column (Amersham Biosciences). The flow-through fraction containing pure RORγ LBD protein was collected, and DTT was added to 10 mM immediately after calculating protein concentration by OD280. For the binding assay, 2 nM Fluorescein-labeled 25-hydroxycholesterol was incubated with purified RORγ LBD protein for 2 hrs at room temperature. Protein concentration was varied by serial dilution in binding buffer (20 mM Tris-HCl (pH 8.0), 200 mM NaCl, 10 mM DTT). Fluorescent polarization signals were measured with a Beacon 2000 (PanVera).

T2 sequence (P51449 262-518): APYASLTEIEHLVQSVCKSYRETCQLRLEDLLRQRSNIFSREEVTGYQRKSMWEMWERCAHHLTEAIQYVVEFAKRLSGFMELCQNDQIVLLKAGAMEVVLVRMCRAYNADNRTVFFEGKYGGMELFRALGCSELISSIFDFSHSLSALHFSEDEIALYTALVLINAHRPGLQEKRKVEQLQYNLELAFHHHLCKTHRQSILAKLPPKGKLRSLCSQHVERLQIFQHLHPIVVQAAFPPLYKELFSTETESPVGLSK

SMILES | IC50 [1] | effect on RORγ transcriptional activity [1] | IC50 [2] | IC50 ([1]; S2 cell RORγt reporter, read-out: IC50) | IC50 ([1]; read-out: IC50 (half-maximal inhibitory concentration), RORγ transcriptional activity) | IC50 ([2]; in vitro competition assay, human RORγ LBD, read-out: IC50, displacement of fluorescein-labeled 25-hydroxycholesterol)
CC1O[C@@H](OC2C(C)O[C@H](OC3C(C)O[C@@H](O[C@H]4CC[C@@]5(C)[C@H](CC[C@@H]6[C@@H]5C[C@@H](O)[C@]5(C)[C@@H](C(CO)CCO)CC[C@]65O)C4)C[C@H]3O)C[C@H]2O)C[C@@H](O)C1O (stereo partly drawn) [Compound 13, 20,22-Dihydrodigoxin-21,23-diol] | 11 to 20 µM | still possessed RORγ inhibitory activity | 12 µM | – | – | –
C[C@H]1O[C@@H](O[C@H]2[C@@H](O)C[C@H](O[C@H]3[C@@H](O)C[C@H](O[C@H]4CC[C@@]5(C)[C@H](CC[C@@H]6[C@@H]5C[C@@H](O)[C@]5(C)[C@@H](C7=CC(=O)OC7)CC[C@]65O)C4)O[C@@H]3C)O[C@@H]2C)C[C@H](O)[C@@H]1O [Digoxin] | – | – | – | 1 to 10 µM | 1.98 µM | 4.1 µM
